Results reported in patent publication US11572590B2, “Methods for evaluating tumor cell spheroids using 3D microfluidic cell culture device” (Dana-Farber Cancer Institute, Inc., priority 2017, dated 2023).
Read-outs that look alike come from different tables or passages of the source.

Key:
Assay in all cases: SelectScreen Kinase Profiling, single point inhibition and IC50 for off-target kinases
Assay type in all cases: biochemical
[1] = target: off-target kinases (Homo sapiens, UniProt Q9UK32); settings: RPS6KA6 (RSK4), ZLYTE, ATP Km app
Sequence of off-target kinases (Homo sapiens, UniProt Q9UK32) (Q9UK32 whole entry): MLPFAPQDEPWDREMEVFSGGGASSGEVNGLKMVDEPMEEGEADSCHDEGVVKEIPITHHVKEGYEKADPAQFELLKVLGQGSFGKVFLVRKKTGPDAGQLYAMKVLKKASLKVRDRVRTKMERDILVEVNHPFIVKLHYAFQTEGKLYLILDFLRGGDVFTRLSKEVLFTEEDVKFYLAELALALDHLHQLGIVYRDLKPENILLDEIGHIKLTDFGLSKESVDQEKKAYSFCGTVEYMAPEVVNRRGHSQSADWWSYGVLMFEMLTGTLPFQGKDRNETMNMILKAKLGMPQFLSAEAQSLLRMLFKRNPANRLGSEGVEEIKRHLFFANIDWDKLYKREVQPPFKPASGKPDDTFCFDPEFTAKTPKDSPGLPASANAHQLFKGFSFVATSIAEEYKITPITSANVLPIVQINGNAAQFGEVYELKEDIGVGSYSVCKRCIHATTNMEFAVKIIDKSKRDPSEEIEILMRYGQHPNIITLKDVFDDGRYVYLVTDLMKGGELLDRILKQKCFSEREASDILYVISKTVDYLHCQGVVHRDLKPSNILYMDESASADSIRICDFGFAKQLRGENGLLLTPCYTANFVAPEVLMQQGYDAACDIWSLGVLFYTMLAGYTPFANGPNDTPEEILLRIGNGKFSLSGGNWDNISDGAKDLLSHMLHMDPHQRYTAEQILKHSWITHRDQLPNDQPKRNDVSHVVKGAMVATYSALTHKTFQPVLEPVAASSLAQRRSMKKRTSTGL

[2] = target: off-target kinases (Homo sapiens, UniProt P07333); settings: CSF1R (FMS), ATP Km app, ZLYTE
Sequence of off-target kinases (Homo sapiens, UniProt P07333) (P07333 20-972): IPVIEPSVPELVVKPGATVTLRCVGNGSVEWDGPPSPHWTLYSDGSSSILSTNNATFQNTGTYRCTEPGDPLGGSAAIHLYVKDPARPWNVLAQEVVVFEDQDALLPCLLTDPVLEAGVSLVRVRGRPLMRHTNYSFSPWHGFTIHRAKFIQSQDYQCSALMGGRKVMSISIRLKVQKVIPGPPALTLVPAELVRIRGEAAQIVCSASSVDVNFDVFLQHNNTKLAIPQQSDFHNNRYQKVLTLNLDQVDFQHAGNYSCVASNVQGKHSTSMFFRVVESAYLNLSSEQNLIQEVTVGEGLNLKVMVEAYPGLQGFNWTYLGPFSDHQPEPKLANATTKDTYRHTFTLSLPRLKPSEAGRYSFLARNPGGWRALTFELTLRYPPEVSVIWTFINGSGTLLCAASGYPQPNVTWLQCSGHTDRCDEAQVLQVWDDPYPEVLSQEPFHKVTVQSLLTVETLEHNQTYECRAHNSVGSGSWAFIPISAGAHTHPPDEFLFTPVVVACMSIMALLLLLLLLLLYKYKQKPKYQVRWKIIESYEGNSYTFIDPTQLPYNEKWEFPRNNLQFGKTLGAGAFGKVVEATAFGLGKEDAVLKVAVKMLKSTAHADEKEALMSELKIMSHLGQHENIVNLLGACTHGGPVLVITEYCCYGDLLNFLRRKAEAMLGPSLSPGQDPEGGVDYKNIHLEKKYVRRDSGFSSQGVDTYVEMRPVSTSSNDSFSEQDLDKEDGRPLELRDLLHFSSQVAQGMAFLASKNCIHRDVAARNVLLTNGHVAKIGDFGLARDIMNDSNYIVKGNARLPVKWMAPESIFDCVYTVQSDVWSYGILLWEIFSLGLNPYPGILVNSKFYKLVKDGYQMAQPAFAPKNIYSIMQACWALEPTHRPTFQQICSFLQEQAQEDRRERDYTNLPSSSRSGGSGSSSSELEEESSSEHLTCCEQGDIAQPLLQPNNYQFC

[3] = target: off-target kinases (Homo sapiens, UniProt P00533, DEL746-750); settings: EGFR (ErbB1) d746-750; mutant y; LanthaScreen Binding
Sequence of off-target kinases (Homo sapiens, UniProt P00533, DEL746-750) (P00533 with tags, fused parts or gaps DEL746-750): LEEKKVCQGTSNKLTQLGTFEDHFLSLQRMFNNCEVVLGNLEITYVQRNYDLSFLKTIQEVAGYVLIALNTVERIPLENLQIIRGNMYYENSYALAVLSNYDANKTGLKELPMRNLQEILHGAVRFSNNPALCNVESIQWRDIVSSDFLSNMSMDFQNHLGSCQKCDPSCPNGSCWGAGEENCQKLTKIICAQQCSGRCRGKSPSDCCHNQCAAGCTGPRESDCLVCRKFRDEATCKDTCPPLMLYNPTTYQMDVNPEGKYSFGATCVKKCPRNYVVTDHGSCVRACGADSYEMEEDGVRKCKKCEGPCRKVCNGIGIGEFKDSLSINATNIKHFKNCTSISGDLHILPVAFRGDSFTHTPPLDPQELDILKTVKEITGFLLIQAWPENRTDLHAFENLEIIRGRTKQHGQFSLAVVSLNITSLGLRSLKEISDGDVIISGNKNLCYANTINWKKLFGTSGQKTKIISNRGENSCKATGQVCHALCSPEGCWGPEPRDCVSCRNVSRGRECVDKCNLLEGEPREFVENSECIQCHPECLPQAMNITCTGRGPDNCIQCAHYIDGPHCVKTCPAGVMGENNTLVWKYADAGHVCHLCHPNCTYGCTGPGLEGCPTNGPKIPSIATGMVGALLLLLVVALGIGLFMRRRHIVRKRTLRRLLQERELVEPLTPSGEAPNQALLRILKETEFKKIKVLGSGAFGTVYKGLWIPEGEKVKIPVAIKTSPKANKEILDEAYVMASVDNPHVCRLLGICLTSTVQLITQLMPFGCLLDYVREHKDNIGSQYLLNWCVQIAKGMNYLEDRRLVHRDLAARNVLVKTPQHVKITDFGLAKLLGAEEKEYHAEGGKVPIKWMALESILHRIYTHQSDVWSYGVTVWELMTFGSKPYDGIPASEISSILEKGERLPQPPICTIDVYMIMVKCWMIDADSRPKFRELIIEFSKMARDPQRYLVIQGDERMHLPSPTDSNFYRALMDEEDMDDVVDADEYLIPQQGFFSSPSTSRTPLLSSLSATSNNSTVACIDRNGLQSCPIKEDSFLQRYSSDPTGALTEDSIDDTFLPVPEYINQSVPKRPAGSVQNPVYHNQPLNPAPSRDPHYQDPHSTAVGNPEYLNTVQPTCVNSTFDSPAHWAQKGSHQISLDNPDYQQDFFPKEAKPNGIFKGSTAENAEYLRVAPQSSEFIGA

[4] = target: off-target kinases (Homo sapiens, UniProt Q04912); settings: MST1R (RON), ZLYTE, ATP Km app
Sequence of off-target kinases (Homo sapiens, UniProt Q04912) (Q04912 25-1400): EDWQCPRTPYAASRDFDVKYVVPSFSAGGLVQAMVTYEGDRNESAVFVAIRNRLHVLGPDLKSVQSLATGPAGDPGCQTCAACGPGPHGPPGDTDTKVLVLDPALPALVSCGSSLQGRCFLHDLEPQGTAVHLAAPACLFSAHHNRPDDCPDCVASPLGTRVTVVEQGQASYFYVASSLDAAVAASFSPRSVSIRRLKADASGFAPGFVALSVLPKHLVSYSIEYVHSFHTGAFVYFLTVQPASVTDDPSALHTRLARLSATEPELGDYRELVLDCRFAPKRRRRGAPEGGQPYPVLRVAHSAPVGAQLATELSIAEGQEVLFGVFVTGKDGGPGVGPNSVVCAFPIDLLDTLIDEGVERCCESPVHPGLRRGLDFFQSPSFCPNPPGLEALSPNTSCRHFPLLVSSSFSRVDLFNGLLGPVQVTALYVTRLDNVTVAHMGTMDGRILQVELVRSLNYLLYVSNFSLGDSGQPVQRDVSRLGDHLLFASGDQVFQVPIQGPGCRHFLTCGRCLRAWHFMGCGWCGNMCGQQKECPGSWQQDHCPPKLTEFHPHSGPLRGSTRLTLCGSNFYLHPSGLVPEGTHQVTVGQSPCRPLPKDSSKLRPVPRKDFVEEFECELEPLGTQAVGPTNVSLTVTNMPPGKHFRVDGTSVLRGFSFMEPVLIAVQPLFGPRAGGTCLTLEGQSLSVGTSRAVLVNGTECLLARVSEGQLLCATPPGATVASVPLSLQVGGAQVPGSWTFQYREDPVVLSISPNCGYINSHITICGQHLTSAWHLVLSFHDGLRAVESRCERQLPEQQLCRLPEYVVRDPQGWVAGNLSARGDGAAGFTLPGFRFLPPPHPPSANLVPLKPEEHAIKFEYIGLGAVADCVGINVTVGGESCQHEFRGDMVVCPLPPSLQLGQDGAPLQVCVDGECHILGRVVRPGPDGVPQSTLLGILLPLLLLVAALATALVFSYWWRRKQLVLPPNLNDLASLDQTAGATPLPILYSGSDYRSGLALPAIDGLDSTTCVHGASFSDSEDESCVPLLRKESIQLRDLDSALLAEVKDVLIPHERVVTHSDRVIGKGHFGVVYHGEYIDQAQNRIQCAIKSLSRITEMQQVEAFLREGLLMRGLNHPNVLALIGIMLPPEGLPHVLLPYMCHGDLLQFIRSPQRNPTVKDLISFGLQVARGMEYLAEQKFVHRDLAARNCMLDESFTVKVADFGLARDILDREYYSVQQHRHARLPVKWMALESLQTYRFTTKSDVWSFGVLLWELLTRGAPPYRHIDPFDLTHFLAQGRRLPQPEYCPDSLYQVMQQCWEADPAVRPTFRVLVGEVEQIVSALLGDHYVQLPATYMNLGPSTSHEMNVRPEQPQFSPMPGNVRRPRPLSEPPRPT

[5] = target: T1, off-target kinases (Homo sapiens, UniProt P29322); settings: EPHA8, ZLYTE, ATP Km app
T1 sequence (P29322 28-1005): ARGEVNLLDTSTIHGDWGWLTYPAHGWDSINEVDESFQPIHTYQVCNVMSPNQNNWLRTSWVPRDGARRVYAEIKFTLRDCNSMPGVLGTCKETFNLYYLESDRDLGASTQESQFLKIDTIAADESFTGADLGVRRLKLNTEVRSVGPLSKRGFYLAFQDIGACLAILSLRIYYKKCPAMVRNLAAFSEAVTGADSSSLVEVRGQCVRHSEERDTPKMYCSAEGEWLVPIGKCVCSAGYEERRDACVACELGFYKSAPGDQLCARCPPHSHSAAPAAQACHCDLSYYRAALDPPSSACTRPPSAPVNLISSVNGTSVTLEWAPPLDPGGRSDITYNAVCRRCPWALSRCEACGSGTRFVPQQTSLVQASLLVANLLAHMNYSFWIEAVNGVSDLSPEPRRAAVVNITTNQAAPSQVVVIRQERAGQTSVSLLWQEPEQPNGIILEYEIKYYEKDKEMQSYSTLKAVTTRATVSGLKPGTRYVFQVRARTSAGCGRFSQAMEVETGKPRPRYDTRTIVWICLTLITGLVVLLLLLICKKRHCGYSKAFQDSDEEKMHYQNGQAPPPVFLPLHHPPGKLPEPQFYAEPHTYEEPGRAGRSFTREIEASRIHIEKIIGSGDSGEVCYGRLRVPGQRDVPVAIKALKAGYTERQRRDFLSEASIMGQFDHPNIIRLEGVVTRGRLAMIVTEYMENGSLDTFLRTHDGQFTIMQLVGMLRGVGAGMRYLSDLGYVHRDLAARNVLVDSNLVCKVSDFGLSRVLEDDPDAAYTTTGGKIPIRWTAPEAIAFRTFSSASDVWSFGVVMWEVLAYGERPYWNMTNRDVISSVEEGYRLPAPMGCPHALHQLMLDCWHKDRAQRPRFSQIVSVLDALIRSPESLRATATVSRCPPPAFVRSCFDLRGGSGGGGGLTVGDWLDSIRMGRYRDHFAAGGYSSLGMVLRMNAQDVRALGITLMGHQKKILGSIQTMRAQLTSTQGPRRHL

Work on `N#Cc1cc(-c2ncnc(Nc3ccc(N4CCN(C5COC5)CC4)cc3)n2)ccc1OC1CCOCC1` [Compound 1, 5-(4-((4-(4-(oxetan-3-yl)piperazin-1-yl)phenyl)amino)-1,3,5-triazin-2-yl)-2-((tetrahydro-2H-pyran-4-yl)oxy)benzonitrile] yielded an inhibition ([1]; read-out: % Inhibition 1) of 14%, an inhibition ([1]; read-out: % Inhibition 2) of 17% and an inhibition ([1]; read-out: % Inhibition Avg) of 16%. The inhibition ([2]; read-out: % Inhibition 1) was 91%, the inhibition ([2]; read-out: % Inhibition 2) was 96% and the inhibition ([2]; read-out: % Inhibition Avg) was 93%. The inhibition [3] was 14%, the inhibition ([4]; read-out: % Inhibition 1) was 38% and the inhibition ([4]; read-out: % Inhibition 2) was 38%. For the same compound, the inhibition ([4]; read-out: % Inhibition Avg) was 38%, the inhibition ([5]; read-out: % Inhibition 1) was 11% and the inhibition ([5]; read-out: % Inhibition 2) was 7%. It also gave an inhibition ([5]; read-out: % Inhibition Avg) of 9%.
